# Values quoted from earlier work, collected in patent publication US12071673B2, “Methods of diagnosis, selection, and treatment of diseases and conditions caused by or associated with methanogens” (Cedars-Sinai Medical Center, priority 2013, dated 2024).
# How the values were obtained:
# methanogens = conditions: retrospective study, 10 days; for reduction in methane: breath methane
Compound,"reduction of proximal small bowel motility (average) (5 dogs, methane infused through mid-small bowel fistula)","slowing of small intestinal transit (in vivo animal study, methane infused into the small intestine)",reduction in constipation symptoms (methanogens),reduction in methane (methanogens)
C [methane],59%,59%,,
CO[C@H]1/C=C/O[C@@]2(C)Oc3c(C)c(O)c4c(O)c(c5c(nc6cc(C)ccn65)c4c3C2=O)NC(=O)/C(C)=C\C=C\[C@H](C)[C@H](O)[C@@H](C)[C@@H](O)[C@@H](C)[C@H](OC(C)=O)[C@@H]1C [rifaximin],,,56%,28%
neomycin,,,63%,33%
